Assay [1] deals with human CYP4A11 (Homo sapiens (Human), UniProt Q02928). The assay can be described thus: Inhibition test against 20-HETE producing enzyme CYP4A11 (luciferine derivative, luminescence). The class given is biochemical. The method in brief:
(§1)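 E. coli membranes (100 μg/mL protein) expressing human enzyme, room temperature 60 min, luciferin-derivative luminescence; IC50 from % inhibition. CYP4F2: 50 mM KPO4 pH 7.4, 2.5 μM substrate, 1 mM NADPH. CYP4A11: 100 mM Tris-HCl pH 7.5, 60 μM substrate, NADP+/glucose 6-phosphate/G6PDH regenerating system, 3.3 mM MgCl2.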

The target in assay [2] is human CYP4F2 (Homo sapiens (Human), UniProt P78329). Kind of assay: Inhibition test against 20-HETE producing enzyme CYP4F2 (luciferine derivative, luminescence). The class given is biochemical. In short, it runs like this: as §1
Where [3] appears, read: human CYP4A11, luciferine derivative, luminescence.
The mark [4] stands for this setting: human CYP4F2, luciferine derivative, luminescence.
Setting [5] is: E. coli membrane fraction expressing human CYP4A11, 60 μM luciferine derivative, room temperature 60 minutes.
[6] abbreviates: E. coli membrane fraction expressing human CYP4F2, 2.5 μM luciferine derivative, room temperature 60 minutes.

Where only a bound is given, the exact number is not on record here.

Sequence of human CYP4A11 (Q02928 5-519): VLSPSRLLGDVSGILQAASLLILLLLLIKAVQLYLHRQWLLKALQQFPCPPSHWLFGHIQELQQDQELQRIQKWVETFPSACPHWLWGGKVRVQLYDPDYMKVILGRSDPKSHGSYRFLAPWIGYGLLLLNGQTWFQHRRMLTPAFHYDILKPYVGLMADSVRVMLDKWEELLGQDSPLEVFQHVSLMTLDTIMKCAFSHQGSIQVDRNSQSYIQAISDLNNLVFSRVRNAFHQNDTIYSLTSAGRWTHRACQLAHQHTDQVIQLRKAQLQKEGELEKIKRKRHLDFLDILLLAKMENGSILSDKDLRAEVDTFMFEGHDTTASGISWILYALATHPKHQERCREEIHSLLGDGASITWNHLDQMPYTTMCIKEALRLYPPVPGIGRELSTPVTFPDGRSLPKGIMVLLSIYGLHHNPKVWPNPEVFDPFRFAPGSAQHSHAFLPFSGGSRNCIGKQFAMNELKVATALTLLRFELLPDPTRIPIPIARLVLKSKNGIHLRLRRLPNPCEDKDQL
Sequence of human CYP4F2 (P78329 5-520): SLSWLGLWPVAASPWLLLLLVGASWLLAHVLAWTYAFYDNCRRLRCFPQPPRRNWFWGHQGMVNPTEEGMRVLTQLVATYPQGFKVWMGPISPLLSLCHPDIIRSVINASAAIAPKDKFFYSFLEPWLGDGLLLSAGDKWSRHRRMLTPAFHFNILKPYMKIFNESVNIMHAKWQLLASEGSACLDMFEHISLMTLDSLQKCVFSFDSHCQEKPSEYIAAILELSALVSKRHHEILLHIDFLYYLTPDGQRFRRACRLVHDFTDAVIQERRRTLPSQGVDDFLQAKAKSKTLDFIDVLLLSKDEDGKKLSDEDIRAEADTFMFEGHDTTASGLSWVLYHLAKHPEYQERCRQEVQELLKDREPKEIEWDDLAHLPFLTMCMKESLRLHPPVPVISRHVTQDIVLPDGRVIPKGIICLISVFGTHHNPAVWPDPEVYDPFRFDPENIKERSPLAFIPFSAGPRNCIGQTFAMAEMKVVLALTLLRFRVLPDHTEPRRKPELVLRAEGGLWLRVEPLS

In general, IC50 refers to the midpoint of a concentration-inhibition curve. A low value points to inhibition by little substance. `O=C(N[C@@H](Cc1ccccc1)C(=O)O)c1cccc(COc2ccc(-c3ccn[nH]3)nc2)c1` [Example 45-11]: the half-maximal inhibitory concentration (IC50) was found to be 23 nM in assay [1] (setting [3]) and 1200 nM in assay [2] (setting [4]).
Taken in the same sequence, the figures for `O=C(N[C@H](Cc1ccccc1)C(=O)O)c1cccc(COc2ccc(-c3ccn[nH]3)nc2)c1` [Example 45-12] were 220 nM and 890 nM.
On to `O=C(NC1(C(=O)O)CCOCC1)c1cccc(COc2ccc(-c3ccn[nH]3)nc2)c1` [Example 45-13], for which the results for the IC50 in assay [1] (setting [3]) and in assay [2] (setting [4]) were 240 nM and 6800 nM, respectively.
Turning to `CC(C)(CCNC(=O)c1cccc(COc2ccc(-c3ccn[nH]3)nc2)c1)C(=O)O` [Example 45-14], the IC50 in assay [1] (setting [3]) came out at 51 nM; in assay [2] (setting [4]), 410 nM.
For `CC(C)(CCNC(=O)c1cc(COc2ccc(-c3ccn[nH]3)nc2)ccn1)C(=O)O` [Example 45-15] the same measures were 1200 nM and 180 nM.
Consider `CC(C)(CCNC(=O)c1cccc(COc2ccc(-c3ccn[nH]3)nc2)n1)C(=O)O` [Example 45-16], for which the 50% inhibitory concentration (IC50) in assay [1] (setting [3]) stood at 120 nM; in assay [2] (setting [4]) it was 3400 nM.
Taken in the same sequence, the figures for `CC(C)(CCNC(=O)c1cncc(COc2ccc(-c3ccn[nH]3)nc2)c1)C(=O)O` [Example 45-17] were 510 nM and 1000 nM.
`CN(CCC(C)(C)C(=O)O)C(=O)c1cccc(COc2ccc(-c3ccn[nH]3)nc2)c1` [Example 45-18]: the IC50 in assay [1] (setting [3]) is 440 nM; in assay [2] (setting [4]), 270 nM.
Taken in the same sequence, the figures for `O=C(N[C@H]1CC[C@@H](C(=O)O)CC1)c1cccc(COc2ccc(-c3ccn[nH]3)nc2)c1` [Example 45-19] were 1000 nM and 13000 nM.
For `O=C(N[C@H]1CC[C@H](C(=O)O)CC1)c1cccc(COc2ccc(-c3ccn[nH]3)nc2)c1` [Example 45-20] the same measures were 410 nM and 2100 nM.
For `O=C(N[C@H]1C[C@@H](C(=O)O)C1)c1cccc(COc2ccc(-c3ccn[nH]3)nc2)c1` [Example 45-21] the same measures were 580 nM and 6100 nM.
Regarding `O=C(N[C@H]1C[C@H](C(=O)O)C1)c1cccc(COc2ccc(-c3ccn[nH]3)nc2)c1` [Example 45-22], the concentration for half-maximal inhibition (IC50) in assay [1] (setting [3]) was 97 nM; in assay [2] (setting [4]), 2800 nM.
In the case of `O=C(NC12CC(C(=O)O)(C1)C2)c1cccc(COc2ccc(-c3ccn[nH]3)nc2)c1` [Example 45-23], the results for the half-inhibitory concentration (IC50) in assay [1] (setting [3]) and in assay [2] (setting [4]) were 710 nM and 3900 nM, respectively.
Taken in the same sequence, the figures for `O=C(O)c1ccc(CNC(=O)c2cccc(COc3ccc(-c4ccn[nH]4)nc3)c2)cc1` [Example 45-24] were 56 nM and 830 nM.
On to `O=C(O)c1cccc(CNC(=O)c2cccc(COc3ccc(-c4ccn[nH]4)nc3)c2)c1` [Example 45-25], for which the results for the IC50 in assay [1] (setting [3]) and in assay [2] (setting [4]) were 40 nM and 370 nM, respectively.
For `O=C(NCc1ccccc1C(=O)O)c1cccc(COc2ccc(-c3ccn[nH]3)nc2)c1` [Example 45-26] the same measures were 31 nM and 880 nM.
For `O=C(O)C1CCN(C(=O)c2cccc(COc3ccc(-c4ccn[nH]4)nc3)c2)CC1` [Example 45-27], the figures for the IC50 in assay [1] (setting [3]) and in assay [2] (setting [4]) were 510 nM and 2200 nM, respectively.
For `O=C(O)[C@@H]1CCCN(C(=O)c2cccc(COc3ccc(-c4ccn[nH]4)nc3)c2)C1` [Example 45-28] the same measures were 270 nM and 3700 nM.
On to `O=C(O)[C@H]1CCCN(C(=O)c2cccc(COc3ccc(-c4ccn[nH]4)nc3)c2)C1` [Example 45-29], for which the IC50 was 170 nM in assay [1] (setting [3]) and 4900 nM in assay [2] (setting [4]).
For `O=C(O)CC1CCN(C(=O)c2cccc(COc3ccc(-c4ccn[nH]4)nc3)c2)CC1` [Example 45-30], the 50% inhibitory concentration (IC50) was found to be 290 nM in assay [1] (setting [3]) and 4000 nM in assay [2] (setting [4]).
As to `O=C(O)CC1CCCN(C(=O)c2cccc(COc3ccc(-c4ccn[nH]4)nc3)c2)C1` (stereo not shown) [Example 45-31], the IC50 in assay [1] (setting [3]) was 370 nM; in assay [2] (setting [4]) it was 2500 nM.
`O=C(O)CC1CCCCN1C(=O)c1cccc(COc2ccc(-c3ccn[nH]3)nc2)c1` (stereo not shown) [Example 45-32]: the figures for the half-maximal inhibitory concentration (IC50) in assay [1] (setting [3]) and in assay [2] (setting [4]) were 660 nM and 6800 nM, respectively.
For `O=C(O)C1CC2CCC(C1)N2C(=O)c1cccc(COc2ccc(-c3ccn[nH]3)nc2)c1` (stereo not shown) [Example 45-33] the same measures were 2000 nM and 19000 nM.
Take `O=C(O)[C@@H]1CCCN1C(=O)c1cccc(COc2ccc(-c3ccn[nH]3)nc2)c1` [Example 45-34]: the IC50 in assay [1] (setting [3]) worked out at 220 nM; in assay [2] (setting [4]), 17000 nM.
Taken in the same sequence, the figures for `O=C(O)[C@H]1CCCN1C(=O)c1cccc(COc2ccc(-c3ccn[nH]3)nc2)c1` [Example 45-35] were 3200 nM and 13000 nM.
Taken in the same sequence, the figures for `O=C(O)C1CCN(C(=O)c2cccc(COc3ccc(-c4ccn[nH]4)nc3)c2)C1` (stereo not shown) [Example 45-36] were 230 nM and 1100 nM.
`O=C(c1cccc(COc2ccc(-c3ccn[nH]3)nc2)c1)N1CCC(F)(C(=O)O)C1` (stereo not shown) [Example 45-37]: the IC50 amounted to 120 nM in assay [1] (setting [3]) and 720 nM in assay [2] (setting [4]).
For `O=C(c1cc(COc2ccc(-c3ccn[nH]3)nc2)ccn1)N1CCC(F)(C(=O)O)C1` (stereo not shown) [Example 45-38] the same measures were 310 nM and 300 nM.
Taken in the same sequence, the figures for `O=C(O)C[C@H]1CCN(C(=O)c2cccc(COc3ccc(-c4ccn[nH]4)nc3)c2)C1` [Example 45-39] were 470 nM and 1400 nM.
`O=C(O)C[C@@H]1CCN(C(=O)c2cccc(COc3ccc(-c4ccn[nH]4)nc3)c2)C1` [Example 45-40]: the values for the IC50 in assay [1] (setting [3]) and in assay [2] (setting [4]) were 410 nM and 1400 nM, respectively.
`O=C(O)CC1CN(C(=O)c2cccc(COc3ccc(-c4ccn[nH]4)nc3)c2)C1` [Example 45-41]: the IC50 is 200 nM in assay [1] (setting [3]) and 1800 nM in assay [2] (setting [4]).
For `O=C(O)c1nc2c(o1)CN(C(=O)c1cccc(COc3ccc(-c4ccn[nH]4)nc3)c1)C2` [Example 45-42] the same measures were 450 nM and 34 nM.
Consider `O=C(O)c1ncc2c(n1)CN(C(=O)c1cccc(COc3ccc(-c4ccn[nH]4)nc3)c1)C2` [Example 45-43], for which the IC50 in assay [1] (setting [3]) was 1700 nM; in assay [2] (setting [4]), 5200 nM.
For `O=C(O)c1cnn2c1CN(C(=O)c1cccc(COc3ccc(-c4ccn[nH]4)nc3)c1)CC2` [Example 45-44] the same measures were 110 nM and 3500 nM.
For `O=C(O)c1cc2n(n1)CCN(C(=O)c1cccc(COc3ccc(-c4ccn[nH]4)nc3)c1)C2` [Example 45-45] the same measures were 1700 nM and 1600 nM.
For `O=C(O)c1nc2c(o1)CCN(C(=O)c1cccc(COc3ccc(-c4ccn[nH]4)nc3)c1)C2` [Example 45-46] the same measures were 160 nM and 54 nM.
Take `O=C(NCc1cc(O)no1)c1cccc(COc2ccc(-c3ccn[nH]3)nc2)c1` [Example 45-47]: the IC50 in assay [1] (setting [5]) turned out to be 190 nM; in assay [2] (setting [6]) it was 970 nM.
Taken in the same sequence, the figures for `CC(C)(CC(=O)N1CCC(COc2ccc(-c3ccn[nH]3)nc2)CC1)C(=O)O` [Example 46-1, 2,2-Dimethyl-4-oxo-4-[4 [[6-(1H-pyrazol-5-yl)-3-pyridinyl]oxymethyl]-1-piperidinyl]butanoic Acid] were 3200 nM and 7600 nM.
Taken in the same sequence, the figures for `O=C(CCC12CC(C(=O)O)(C1)C2)N1CCC[C@@H](COc2ccc(-c3ccn[nH]3)nc2)C1` [Example 46-2] were 730 nM and 470 nM.
For `O=C(O)C12CC(C(=O)N3CCC[C@@H](COc4ccc(-c5ccn[nH]5)nc4)C3)(C1)C2` [Example 46-3] the same measures were 1500 nM and over 50000 nM.
Consider `O=C(O)C12CCC(C(=O)N3CCC[C@@H](COc4ccc(-c5ccn[nH]5)nc4)C3)(CC1)CC2` [Example 46-4], for which the half-maximal inhibitory concentration (IC50) in assay [1] (setting [5]) is 1000 nM; in assay [2] (setting [6]), 18000 nM.
For `O=C(O)c1cccc(CC(=O)N2CCC[C@@H](COc3ccc(-c4ccn[nH]4)nc3)C2)c1` [Example 46-5], the IC50 stood at 280 nM in assay [1] (setting [5]) and 7500 nM in assay [2] (setting [6]).
Taken in the same sequence, the figures for `O=C(CCCC1(C(=O)O)CCCC1)N1CCC(COc2ccc(-c3ccn[nH]3)nc2)CC1` [Example 47-1, 1-[4-Oxo-4-[4-[[6-(1H-pyrazol-5-yl)-3-pyridinyl]oxymethyl]-1-piperidinyl]butyl]-1-cyclopentanecarboxylic Acid] were 830 nM and 150 nM.
Taken in the same sequence, the figures for `O=C(O)CCC(=O)N1CCC(COc2ccc(-c3ccn[nH]3)nc2)CC1` [Example 48-1, 4-Oxo-4-[4-[[6-(1H-pyrazol-5-yl)-3-pyridinyl]oxymethyl]-1-piperidinyl]butanoic Acid] were 620 nM and 11000 nM.
For the compound `O=C(O)CCNC(=O)c1cc(COc2ccc(-c3ccn[nH]3)nc2)ccn1` [Example 49-1, 3-[[Oxo-[4-[[6-(1H-pyrazol-5-yl)-3-pyridinyl]oxymethyl]-2-pyridinyl]methyl]amino]propanoic Acid], the half-maximal inhibitory concentration (IC50) in assay [1] (setting [5]) was determined as 1200 nM; in assay [2] (setting [6]), 1100 nM.
For `O=C(CCCCCCOc1ccc(-c2ccn[nH]2)nc1)NC1(C(=O)O)CCCC1` [Example 50-1, 1-[[1-Oxo-7-[[6-(1H-pyrazol-5-yl)-3-pyridinyl]oxy]heptyl]amino]-1-cyclopentanecarboxylic Acid] the same measures were 75 nM and 2800 nM.
For `COC(=O)N1CCC(O)(c2cccc(COc3ccc(-c4ccn[nH]4)nc3)c2)CC1` [Example 51-1, Methyl 4-hydroxy-4-[3-[[6-(1-H-pyrazol-5-yl)-3-pyridinyl]oxymethyl]phenyl]-1-piperidinecarboxylate] the same measures were 270 nM and 3 nM.
